Laboratory results from patent US12358892B2, “Metalloenzyme inhibitors for treating cancers, Alzheimer's disease, hemochromatosis, and other disorders” (Miralogx LLC, priority 2020, dated 2025).
“Also recorded” adds a separate entry of the source.

Assays:
[1] = test system: HT-29 colorectal adenocarcinoma cell line; experiment: BioMAP Oncology CRC panel (StroHT29 and VascHT29 systems); type: cell-based, human
Description: The BioMAP® oncology system used in this Example is a coculture of primary human immune cells with primary tissue cells in the presence of the Colorectal Cancer (CRC) cells. In particular, The BioMAP® Oncology CRC panel models the interactions between the immune-stromal (fibroblasts) and immune-vascular (endothelial cells) environments in the context of colorectal cancer (HT-29 colorectal adenocarcinoma cell line). The interactions between tumor cells, stimulated immune cells (peripheral blood mononuclear cells [PBMC]), and the host stromal network (human neonatal dermal fibroblasts [HDFn]) are captured in the StroHT29 system. In parallel, the VascHT29 system captures the interactions between tumor cells, activated immune cells and the vascular tissue (human umbilical vein endothelial cells [HUVEC]). The biomarkers selected for the BioMAP® Colorectal Cancer (CRC) panel inform on activities related to inflammation, immune-function, tissue remodeling and metastasis in the context of a host tumor-microenvironment.
A signature BioMAP® profile that is reflective of the changes in protein biomarker readouts within an individual system is generated for each test agent. Biomarker readouts selected for therapeutic and biological relevance are predictive for disease outcomes or specific drug effects, and have been validated using agents with known clinical efficacy. Each readout is measured quantitatively by immune-based receptors, cytokines, chemokines, matrix molecules and enzymes. In total, the 41 biomarker readouts in the CRC panel capture the biological changes that occur within the physiological context of each particular BioMAP® system.
The BioMAP® CRC panel allows a focused in vitro evaluation of the impact of an agent in a model system that includes the hierarchical signaling networks that exist between interacting pathways and cells in a disease relevant setting. To represent the changes that are occurring in these complex systems, biomarker readouts with the ability to integrate and distinguish changes in different regulatory networks have been selected.
Data analysis of the results was performed as described in detail above in Example 3.1. Briefly, biomarker activities are annotated when at least one concentration of the test agent is outside of the significance envelope with an effect size >20% compared to the vehicle control (|log 10 ratio|>0.1) and a p-value <0.01. Cytotoxic conditions are noted when total protein levels decrease by more than 50% (log 10 ratio of SRB <−0.3). Biomarker key activities are described as modulated if these activities increase in some systems, but decrease in others.

[2] = test system: human primary endothelial cells; experiment: BioMAP proliferation readout, endothelial cells; type: cell-based; conditions: 100 μM, 33 μM, 11 μM
Description: The X-axis lists the quantitative protein-based biomarker readouts measured in each system. The Y-axis represents a log-transformed ratio of the biomarker readouts for the drug-treated sample (n=1) over vehicle controls (n≥6). The grey region around the Y-axis represents the 95% significance envelope generated from historical vehicle controls. Biomarker activities are annotated when two or more consecutive concentrations change in the same direction relative to vehicle controls, are outside of the significance envelope, and have at least one concentration with an effect size >20% (|log 10 ratio|>0.1). Biomarker key activities are described as modulated if these activities increase in some systems, but decrease in others. […] As summarized in Table 2 below, the compound was active with 35 annotated readouts. […]
Human primary cells in BioMAP® systems are used at early passage (passage 4 or earlier) to minimize adaptation to cell culture conditions and preserve physiological signaling responses. […] Test agents prepared in either DMSO (small molecules; final concentration ≤0.1%) or PBS (biologics) are added at the indicated concentrations 1-hr before stimulation, and remain in culture for 24-hrs or as otherwise indicated (48-hrs, MyoF system; 72-hrs, BT system (soluble readouts); 168-hrs, BT system (secreted IgG)). […]

[3] = 7.4 μM, 22 μM, 67 μM, Angiogenesis related activities
[4] = 7.4 μM, 22 μM, 67 μM, Immune-related activities
[5] = 7.4 μM, 22 μM, 67 μM, Inflammation related activities
[6] = 7.4 μM, 22 μM, 67 μM, Matrix remodeling activities
[7] = 7.4 μM, 22 μM, 67 μM, Tumor-related activities

C1=NC(c2cncc(C3CCC=N3)c2)CC1 (stereo not shown) [3,5-bis(3,4-dihydro-2H-pyrrol-2-yl)pyridine]
Decreased activity: PAI-I [1, 3]: decreased; also recorded: PAI-I | Decreased activity: tPA [1, 3]: decreased and tPA | Decreased activity: uPA [1, 3]: decreased and uPA | Increased activity: sVEGF [1, 3]: increased; also recorded: SVEGF | Decreased Activity: sIL-6 [1, 4]: decreased | Decreased activity: CD40 [1, 4]: decreased and CD40 | Decreased activity: CD69 [1, 4]: decreased and CD69 | Decreased activity: sGranB [1, 4]: decreased; also recorded: sGranB | Decreased activity: sIFNγ [1, 4]: decreased; also recorded: SIFNG | Decreased activity: sIL-2 [1, 4]: decreased; also recorded: sIL-2 | Decreased activity: sIL-10 (Table 8) / sIL-1β [1, 4]: decreased | Decreased activity: sIL-17A [1, 4]: decreased | Decreased activity: IP-10 [1, 5]: decreased; also recorded: IP-10 | Decreased activity: MCP-1 [1, 5]: decreased; also recorded: MCP-1 | Decreased activity: MIG [1, 5]: decreased and MIG | Decreased activity: VCAM-1 [1, 5]: decreased; also recorded: VCAM-1 | Decreased activity: Collagen I [1, 6]: decreased; also recorded: Col-I | Decreased activity: Collagen III [1, 6]: decreased and Col- | Decreased activity: Collagen IV [1, 6]: decreased; also recorded: Col-IV | Decreased activity: MMP9 [1, 6]: decreased and MMP9 | Decreased activity: TIMP2 [1, 6]: decreased; also recorded: TIMP2 | Decreased activity: CEACAM5 [1, 7]: decreased; also recorded: CEACAM5 | Decreased activity: Keratin 20 [1, 7]: decreased | cytotoxicity ([1]; at 200 μM): cytotoxic | antiproliferative effect on human primary endothelial cells [2]: antiproliferative
